Reference: ChEMBL document CHEMBL3045611, “Identification of the G143A mutation associated with QoI resistance in Cercospora beticola field isolates from Michigan, United States” (Pest Manag Sci, 2013)
Converted amounts (≈) assume the structure as drawn.

Key:
Type in all cases: functional, organism-based
Cercospora beticola [1] = assay: Antifungal activity against Cercospora beticola isolate 11-1039-1 expressing cytb with alanine at codon 143 assessed as reduction in spore germination
Cercospora beticola [2] = assay: Antifungal activity against Cercospora beticola isolate 11-1022-2 expressing cytb with alanine at codon 143 assessed as reduction in spore germination
Cercospora beticola [3] = assay: Antifungal activity against Cercospora beticola isolate 11-1036-1 expressing cytb with alanine at codon 143 assessed as reduction in spore germination
Cercospora beticola [4] = assay: Antifungal activity against Cercospora beticola isolate 11-1007-1 expressing cytb with alanine at codon 143 assessed as reduction in spore germination
Cercospora beticola [5] = assay: Antifungal activity against Cercospora beticola isolate 11-1028-2 expressing cytb with alanine at codon 143 assessed as reduction in spore germination
Cercospora beticola [6] = assay: Antifungal activity against Cercospora beticola isolate 11-1038-2 expressing cytb with alanine at codon 143 assessed as reduction in spore germination
Cercospora beticola [7] = assay: Antifungal activity against Cercospora beticola isolate 11-1003-2 expressing cytb with alanine at codon 143 assessed as reduction in spore germination
Cercospora beticola [8] = assay: Antifungal activity against Cercospora beticola isolate 98-13-M expressing cytb with glycine at codon 143 assessed as reduction in spore germination
Cercospora beticola [9] = assay: Antifungal activity against Cercospora beticola isolate 11-1036-2 expressing cytb with alanine at codon 143 assessed as reduction in spore germination
Cercospora beticola [10] = assay: Antifungal activity against Cercospora beticola isolate 11-1041-1 expressing cytb with alanine at codon 143 assessed as reduction in spore germination
Cercospora beticola [11] = assay: Antifungal activity against Cercospora beticola isolate 11-1027-2 expressing cytb with alanine at codon 143 assessed as reduction in spore germination
Cercospora beticola [12] = assay: Antifungal activity against Cercospora beticola isolate 11-1040-1 expressing cytb with alanine at codon 143 assessed as reduction in spore germination
Cercospora beticola [13] = assay: Antifungal activity against Cercospora beticola isolate 11-1004-1 expressing cytb with alanine at codon 143 assessed as reduction in spore germination
Cercospora beticola [14] = assay: Antifungal activity against Cercospora beticola isolate 11-1027-1 expressing cytb with alanine at codon 143 assessed as reduction in spore germination
Cercospora beticola [15] = assay: Antifungal activity against Cercospora beticola isolate 11-1038-1 expressing cytb with alanine at codon 143 assessed as reduction in spore germination
Cercospora beticola [16] = assay: Antifungal activity against Cercospora beticola isolate 11-1046-2 expressing cytb with alanine at codon 143 assessed as reduction in spore germination
Cercospora beticola [17] = assay: Antifungal activity against Cercospora beticola isolate 11-1005-1 expressing cytb with alanine at codon 143 assessed as reduction in spore germination
Cercospora beticola [18] = assay: Antifungal activity against Cercospora beticola isolate 11-1015-2 expressing cytb with alanine at codon 143 assessed as reduction in spore germination
Cercospora beticola [19] = assay: Antifungal activity against Cercospora beticola isolate 11-1006-2 expressing cytb with alanine at codon 143 assessed as reduction in spore germination
Cercospora beticola [20] = assay: Antifungal activity against Cercospora beticola isolate 11-1028-1 expressing cytb with alanine at codon 143 assessed as reduction in spore germination
Cercospora beticola [21] = assay: Antifungal activity against Cercospora beticola isolate 11-1045-2 expressing cytb with alanine at codon 143 assessed as reduction in spore germination
Cercospora beticola [22] = assay: Antifungal activity against Cercospora beticola isolate 11-1009-1 expressing cytb with alanine at codon 143 assessed as reduction in spore germination
Cercospora beticola [23] = assay: Antifungal activity against Cercospora beticola isolate 98-9-M expressing cytb with glycine at codon 143 assessed as reduction in spore germination
Cercospora beticola [24] = assay: Antifungal activity against Cercospora beticola isolate 11-1014-1 expressing cytb with alanine at codon 143 assessed as reduction in spore germination
Cercospora beticola [25] = assay: Antifungal activity against Cercospora beticola isolate 11-1007-2 expressing cytb with alanine at codon 143 assessed as reduction in spore germination
Cercospora beticola [26] = assay: Antifungal activity against Cercospora beticola isolate 11-1042-1 expressing cytb with alanine at codon 143 assessed as reduction in spore germination
Cercospora beticola [27] = assay: Antifungal activity against Cercospora beticola isolate 11-1016-1 expressing cytb with alanine at codon 143 assessed as reduction in spore germination
Cercospora beticola [28] = assay: Antifungal activity against Cercospora beticola isolate 98-150-M expressing cytb with glycine at codon 143 assessed as reduction in spore germination
Cercospora beticola [29] = assay: Antifungal activity against Cercospora beticola isolate 11-1044-2 expressing cytb with alanine at codon 143 assessed as reduction in spore germination
Cercospora beticola [30] = assay: Antifungal activity against Cercospora beticola isolate 11-1022-1 expressing cytb with alanine at codon 143 assessed as reduction in spore germination
Cercospora beticola [31] = assay: Antifungal activity against Cercospora beticola isolate 11-1008-1 expressing cytb with alanine at codon 143 assessed as reduction in spore germination
Cercospora beticola [32] = assay: Antifungal activity against Cercospora beticola isolate 98-10-M expressing cytb with glycine at codon 143 assessed as reduction in spore germination
Cercospora beticola [33] = assay: Antifungal activity against Cercospora beticola isolate 99-233-3-M expressing cytb with glycine at codon 143 assessed as reduction in spore germination
Cercospora beticola [34] = assay: Antifungal activity against Cercospora beticola isolate 11-1044-1 expressing cytb with alanine at codon 143 assessed as reduction in spore germination
Cercospora beticola [35] = assay: Antifungal activity against Cercospora beticola isolate 98-19-M expressing cytb with glycine at codon 143 assessed as reduction in spore germination
Cercospora beticola [36] = assay: Antifungal activity against Cercospora beticola isolate 98-12-M expressing cytb with glycine at codon 143 assessed as reduction in spore germination
Cercospora beticola [37] = assay: Antifungal activity against Cercospora beticola isolate 11-1026-2 expressing cytb with alanine at codon 143 assessed as reduction in spore germination
Cercospora beticola [38] = assay: Antifungal activity against Cercospora beticola isolate 11-1040-2 expressing cytb with alanine at codon 143 assessed as reduction in spore germination
Cercospora beticola [39] = assay: Antifungal activity against Cercospora beticola isolate 11-1005-2 expressing cytb with alanine at codon 143 assessed as reduction in spore germination
Cercospora beticola [40] = assay: Antifungal activity against Cercospora beticola isolate 11-1015-1 expressing cytb with alanine at codon 143 assessed as reduction in spore germination
Cercospora beticola [41] = assay: Antifungal activity against Cercospora beticola isolate 11-1037-1 expressing cytb with alanine at codon 143 assessed as reduction in spore germination
Cercospora beticola [42] = assay: Antifungal activity against Cercospora beticola isolate 11-1035-2 expressing cytb with alanine at codon 143 assessed as reduction in spore germination
Cercospora beticola [43] = assay: Antifungal activity against Cercospora beticola isolate 11-1043-2 expressing cytb with alanine at codon 143 assessed as reduction in spore germination
Cercospora beticola [44] = assay: Antifungal activity against Cercospora beticola isolate 98-101-5-M expressing cytb with glycine at codon 143 assessed as reduction in spore germination
Cercospora beticola [45] = assay: Antifungal activity against Cercospora beticola isolate 11-1026-1 expressing cytb with alanine at codon 143 assessed as reduction in spore germination
Cercospora beticola [46] = assay: Antifungal activity against Cercospora beticola isolate 11-1046-1 expressing cytb with alanine at codon 143 assessed as reduction in spore germination
Cercospora beticola [47] = assay: Antifungal activity against Cercospora beticola isolate 99-521-29-M expressing cytb with glycine at codon 143 assessed as reduction in spore germination
Cercospora beticola [48] = assay: Antifungal activity against Cercospora beticola isolate 11-1037-2 expressing cytb with alanine at codon 143 assessed as reduction in spore germination
Cercospora beticola [49] = assay: Antifungal activity against Cercospora beticola isolate 11-1042-2 expressing cytb with alanine at codon 143 assessed as reduction in spore germination

COC(=O)N(OC)c1ccccc1COc1ccn(-c2ccc(Cl)cc2)n1 [PYRACLOSTROBIN]
EC50 (Cercospora beticola [1]): 20.4 µg/mL (≈ 52.7 µM) | EC50 (Cercospora beticola [2]): 6.37 µg/mL (≈ 16.4 µM) | EC50 (Cercospora beticola [3]): 29.7 µg/mL (≈ 76.5 µM) | EC50 (Cercospora beticola [4]): 4.78 µg/mL (≈ 12.3 µM) | EC50 (Cercospora beticola [5]): 4.53 µg/mL (≈ 11.7 µM) | EC50 (Cercospora beticola [6]): 3.24 µg/mL (≈ 8.35 µM) | EC50 (Cercospora beticola [7]): 0.915 µg/mL (≈ 2.36 µM) | EC50 (Cercospora beticola [8]): 6 ng/mL (≈ 0.0155 µM) | EC50 (Cercospora beticola [9]): 5.55 µg/mL (≈ 14.3 µM) | EC50 (Cercospora beticola [10]): 4.55 µg/mL (≈ 11.7 µM) | EC50 (Cercospora beticola [11]): 4.12 µg/mL (≈ 10.6 µM) | EC50 (Cercospora beticola [12]): 12 µg/mL (≈ 31 µM) | EC50 (Cercospora beticola [13]): 5.34 µg/mL (≈ 13.8 µM) | EC50 (Cercospora beticola [14]): 25.9 µg/mL (≈ 66.9 µM) | EC50 (Cercospora beticola [15]): 39.9 µg/mL (≈ 103 µM) | EC50 (Cercospora beticola [16]): 26.2 µg/mL (≈ 67.6 µM) | EC50 (Cercospora beticola [17]): 46 µg/mL (≈ 119 µM) | EC50 (Cercospora beticola [18]): 2.1 µg/mL (≈ 5.41 µM) | EC50 (Cercospora beticola [19]): 9.54 µg/mL (≈ 24.6 µM) | EC50 (Cercospora beticola [20]): 8.79 µg/mL (≈ 22.7 µM) | EC50 (Cercospora beticola [21]): 16.2 µg/mL (≈ 41.9 µM) | EC50 (Cercospora beticola [22]): 47.4 µg/mL (≈ 122 µM) | EC50 (Cercospora beticola [23]): 1 ng/mL (≈ 0.00258 µM) | EC50 (Cercospora beticola [24]): 5.03 µg/mL (≈ 13 µM) | EC50 (Cercospora beticola [25]): 16.1 µg/mL (≈ 41.5 µM) | EC50 (Cercospora beticola [26]): 31.4 µg/mL (≈ 80.9 µM) | EC50 (Cercospora beticola [27]): 51.7 µg/mL (≈ 133 µM) | EC50 (Cercospora beticola [28]): 1 ng/mL (≈ 0.00258 µM) | EC50 (Cercospora beticola [29]): 5.23 µg/mL (≈ 13.5 µM) | EC50 (Cercospora beticola [30]): 29.7 µg/mL (≈ 76.5 µM) | EC50 (Cercospora beticola [31]): 4.82 µg/mL (≈ 12.4 µM) | EC50 (Cercospora beticola [32]): 1 ng/mL (≈ 0.00258 µM) | EC50 (Cercospora beticola [33]): 1 ng/mL (≈ 0.00258 µM) | EC50 (Cercospora beticola [34]): 14.3 µg/mL (≈ 36.8 µM) | EC50 (Cercospora beticola [35]): 3 ng/mL (≈ 0.00774 µM) | EC50 (Cercospora beticola [36]): 1 ng/mL (≈ 0.00258 µM) | EC50 (Cercospora beticola [37]): 7.56 µg/mL (≈ 19.5 µM) | EC50 (Cercospora beticola [38]): 22.3 µg/mL (≈ 57.6 µM) | EC50 (Cercospora beticola [39]): 7.86 µg/mL (≈ 20.3 µM) | EC50 (Cercospora beticola [40]): 72.2 µg/mL (≈ 186 µM) | EC50 (Cercospora beticola [41]): 40.9 µg/mL (≈ 105 µM) | EC50 (Cercospora beticola [42]): 31 µg/mL (≈ 80 µM) | EC50 (Cercospora beticola [43]): 16.9 µg/mL (≈ 43.6 µM) | EC50 (Cercospora beticola [44]): 1 ng/mL (≈ 0.00258 µM) | EC50 (Cercospora beticola [45]): 7.15 µg/mL (≈ 18.4 µM) | EC50 (Cercospora beticola [46]): 41.7 µg/mL (≈ 108 µM) | EC50 (Cercospora beticola [47]): 1 ng/mL (≈ 0.00258 µM) | EC50 (Cercospora beticola [48]): 5.92 µg/mL (≈ 15.3 µM) | EC50 (Cercospora beticola [49]): 32.6 µg/mL (≈ 84.1 µM)
